Experimental data reported in US12637487B2 (priority 2017, dated 2026).
“Also recorded” adds a separate entry of the source.

What was measured:
virus = test: Antiviral effect of AA011 and VK021 alone; format: cell-based
[1] = at 1000 μM
[2] = tested on: Hepatitis C virus (HCV type 2a, JFH1-Luc virus strain); test: MD36792 experiment against hepatitis C virus (Rluc reporter, Huh7.5.1 cells); format: cell-based
ICR mice = test: Acetic acid-induced twisting (writhing) model, analgesic effect; format: in vivo; settings: for Twisting Number Mean: 1 hour before 0.8% acetic acid i.p., 10 mice; for analgesic effect: acetic acid-induced model, mice
Procedure: Experimental method: Animals were adaptively fed for 5 days, and the body weight of the mice was weighed. […] The mice assigned to MD36792 group and the positive control group were given the corresponding drugs. After 1 hour of administration, the mice in each group were intraperitoneally injected with 0.8% acetic acid (0.2 mL/head). The twisting number of the mice were observed and recorded within 15 minutes.

[3] = tested on: Human Immunodeficiency Virus (HIV); test: MD36792 experiments against human immunodeficiency virus (MT-4 cell protection); format: cell-based; settings: MT-4 cells, LAI virus
Procedure: • 1. […] Cell: MT4 cells. • 3. Virus: Human Immunodeficiency Virus (HIV). • 4. Experimental reagents: RPMI-1640 medium, CellTiter-Glo detection kit (Promega) and other experimental reagents.
Experimental principle: MT-4 cell protection experiments were used to detect compounds against viruses.
Experimental steps: A 3-fold diluted drug was added to a 96-well plate, which incubates the LAI virus and MT-4 cells and inoculates it into the well plate. After culture, when the virus infects the control wells, a significant CPE appears. Reagent CellTiter-Glo was added and mixed, then the chemiluminescence signal is to be detected.
The experiment set the cell control (uninfected cell control), virus control, and positive drug control (Zidovudine, AZT).

tumor patients = test: Effect of dicycloplatin on tumor-induced tissue edema and inflammation; format: in vivo, human
[4] = tested on: patients with hepatitis C; test: Dicycloplatin alone in hepatitis C patients; format: in vivo, human; settings: 9 patients with hepatitis C, 1-3 months
Hepatitis B virus (HBV) = test: MD36792 experiment against hepatitis B virus (HBeAg/HBsAg ELISA, HepAD38 cells); format: cell-based; settings: 72 hours, from 333 μM
cells = test: Toxicity to the cells in the HCV combination study; format: cell-based; settings: toxic CC50 to the cells; start concentration 200 μg/ml MD36792, 4 X dilution
HBV patients = test: Dicycloplatin alone in hepatitis B patients; format: in vivo, human; settings: 12 hepatitis B patients, 1-3 months
[5] = tested on: Ebola virus infected people; format: in vivo, human; settings: 20 Ebola-infected patients (Africa), dicycloplatin alone i.v., 1-3 weeks
cancer patients = test: Effect of dicycloplatin on pain in cancer patients (Table 5); format: in vivo, human; settings: for pain, 5th day / pain, 17th day / pain, 31st day, then stop taking: 150 mg i.v. drip once every two days; for pain, 60th-90th (without using DCP ): after stopping
Procedure: Among cancer patients, it is suitable especially to patients with advanced liver cancer, kidney cancer, bone metastases, brain metastases and bone cancer. […] Some patients stopped using dicycloplatin after a certain course of dicycloplatin treatment, and no pain occurred again.
Dose of the above cancer patients is taken once every two days, 150 mg/5% glucose aqueous solution is dripped intravenously.

HCV virus = test: In vitro efficacy of MD36792 and combination with AA011 and VK021 on HCV virus; format: cell-based
Ebola virus = format: cell-based
HIV-infected individuals = tested on: HIV-infected individuals; design: species or system human; settings: in vivo
[6] = at 1000 μM and 250 μM concentration
[7] = Lung cancer to bone metastasis 5 cases
[8] = Lung cancer to brain metastasis 2 cases

C[C@@]1(O)[C@H](O)[C@@H](CO)O[C@H]1n1ccc(N)nc1=O [2'CMC, reference compound]
antiviral effect (virus; positive drug, better as the dose increases): good antiviral effect

N[C@@H](CCC(=O)N[C@@H](CS)C(=O)NCC(=O)O)C(=O)O [AA011, glutathione]
antiviral effect (virus; [6]): certain antiviral effect | cytotoxicity [1]: no obvious cytotoxicity

NC(=O)c1ncn([C@@H]2O[C@H](CO)[C@@H](O)[C@H]2O)n1 [Ribavirin, reference compound]
inhibitory effect on HCV [2]: significant inhibitory effect

COc1cc2c(cc1OC)[C@@H]1Cc3ccc(OC)c(OC)c3CN1CC2 [Rotundine, reference compound]
Twisting Number Mean (ICR mice; 100 mg/kg, counted within 15 minutes): 2.8 | number of writhing compared with the model group (ICR mice; 100 mg/kg, P=0.000): statistically significantly suppressed | analgesic effect (ICR mice): significant analgesic effects

O=C1O[C@H]([C@@H](O)CO)C(O)=C1O [VK021, vitamin C]
antiviral effect (virus; [6]): certain antiviral effect

Cc1cn([C@H]2C[C@H](N=[N+]=[N-])[C@@H](CO)O2)c(=O)[nH]c1=O [zidovudine, Zidovudine, reference compound]
inhibitory effect on HIV infection [3]: significant inhibitory effect

Dicycloplatin [MD36792]
dose relation of analgesic effects (ICR mice; 10, 20, 40 mg/kg): dose-independent | Twisting Number Mean (ICR mice; High dose 40 mg/kg, within 15 minutes): 8.7 | Twisting Number Mean (ICR mice; Low dose 10 mg/kg, within 15 minutes): 15.2 | Twisting Number Mean (ICR mice; Middle dose 20 mg/kg, within 15 minutes): 14.8 | analgesic effect (ICR mice): significant analgesic effects | analgesic effect (ICR mice; listed as dicycloplatin): significant analgesic effect | number of writhing compared with the model group (ICR mice; high-dose group (40 mg/kg), P=0.009): statistically significantly suppressed | hepatic tissue edema (tumor patients; liver cancer patients, infusion or oral administration for a period of time): significantly disappeared or reduced | tissue edema in the brain caused by cancer metastasis (tumor patients; lung cancer patients with brain metastases, oral or injection, one to two weeks): basically eliminated | virus index ([4]; dicycloplatin alone 150 mg once every two days): None of the patients showed a downward trend | liver function ([4]; dicycloplatin alone): did not improve | inhibitory effect on the expression of HBeAg (e antigen) of HBV (Hepatitis B virus (HBV)): no inhibitory effect | inhibitory effect on the expression of HBsAg (surface antigen) of HBV (Hepatitis B virus (HBV)): no inhibitory effect | inhibitory effect on HIV infection [3]: no inhibitory effect | CC50 (cells): 69.4 µg/mL | inhibitory effect on HCV [2]: no inhibitory effect | EC50 ([2]; 72 hours, read-out: EC50 (50% inhibition) of HCV): 121 µM | virus index (HBV patients; dicycloplatin alone 150 mg once every two days (i.v. drip or oral)): None of the patients showed a downward trend | liver function (HBV patients; dicycloplatin alone): did not improve | control or remission [5]: without any control or remission | virus index [5]: None of the patients showed a downward trend | pain, 5th day (cancer patients; Bone cancer 3 cases): Pain gone | pain, 17th day (cancer patients; Bone cancer 3 cases): No pain | pain, 31st day, then stop taking (cancer patients; Bone cancer 3 cases): No pain | pain, 60th-90th (without using DCP ) (cancer patients; Bone cancer 3 cases): No pain | pain, 5th day (cancer patients; Kidney cancer 1 case): Pain relieved | pain, 17th day (cancer patients; Kidney cancer 1 case): Pain gone | pain, 31st day, then stop taking (cancer patients; Kidney cancer 1 case): No pain | pain, 60th-90th (without using DCP ) (cancer patients; Kidney cancer 1 case): No pain | pain, 5th day (cancer patients; Liver cancer 5 cases): Pain gone | pain, 17th day (cancer patients; Liver cancer 5 cases): No pain | pain, 31st day, then stop taking (cancer patients; Liver cancer 5 cases): No pain | pain, 60th-90th (without using DCP ) (cancer patients; Liver cancer 5 cases): No pain | pain, 5th day (cancer patients; [7]): Pain gone | pain, 17th day (cancer patients; [7]): No pain | pain, 31st day, then stop taking (cancer patients; [7]): No pain | pain, 60th-90th (without using DCP ) (cancer patients; [7]): No pain | pain, 5th day (cancer patients; [8]): Pain gone | pain, 17th day (cancer patients; [8]): No pain | pain, 31st day, then stop taking (cancer patients; [8]): No pain | pain, 60th-90th (without using DCP ) (cancer patients; [8]): No pain | treatment of pain caused by cancer (cancer patients; cancer patients, dicycloplatin injection or oral as the only treatment): significant effect; also recorded: significant efficacy | SI (selection index of the antiviral effect) (HCV virus): 4.44 | EC50 (HCV virus; start concentration 200 μg/ml MD36792, 4 X dilution): 15.62 µg/mL | inhibitory effect on Ebola virus infection (Ebola virus): no inhibitory effect | liver function (HIV-infected individuals): did not improve | viral index (HIV-infected individuals; po): none showed a downward trend
